In the case of `CCOC(=O)C(=NOC)c1nnc(C)s1`, the melting point is reported as 79 to 81 °C.
Work on `c1csc(-c2cnc(-c3cccs3)s2)c1` yielded a melting point of 93 to 93.8 °C.
Work on `CC(C)n1nc(-c2c(OCCN)nc(N)nc2-c2ccccc2)ccc1=O` yielded a melting point of 213 to 216 °C.
With `CC(N)CSc1c[nH]c2ccccc12` (stereo not given) the melting point was 110 to 112 °C.
With `N#Cc1ccccc1-c1cc(-c2cnc3nccnn23)ccc1F` the melting point was 211 to 215 °C.
`O=C(O)c1cc(C(=O)O)c(C(O)=NCCO)cc1C(O)=NCCO` showed a melting point of 280 to 281 °C.
`O=C(Nc1ccc(S(=O)(=O)C(F)(F)F)cc1Cl)c1cc(S(=O)c2ccc(F)cc2)c2ccccc2c1O` (stereo not given) gave a melting point of 198 to 200 °C.
Molecule `C[C@@H](S[C@H]1CO[C@H](c2ccc(C(=O)NCc3ccc(C#N)cc3)cc2)OC1)[C@](O)(Cn1cncn1)c1ccc(F)cc1F` has a melting point of 188 °C.
`COc1cc2ccccc2cc1C(=O)O` showed a melting point of 130 to 132 °C.
For `CC(=O)N1OCC(=S)NC1c1ccccc1` (stereo not given), the melting point was 172 to 174 °C.
`O=[N+]([O-])c1cccc2c1ccn2S(=O)(=O)c1cccc2ccccc12` gave a melting point of 156 to 157 °C.
In the case of `COc1ccc(S(C)(=O)=O)cc1C(=O)NCC1CCCN1C12CCC(CC1)C2` (stereo not given), the melting point is reported as 125 °C.
Molecule `CCCc1ccc(Oc2ccc3c(c2)C=C(C(=O)Nc2ccc(CN(C)C4CCOCC4)cc2)CCS3(=O)=O)cc1` has a melting point of 147 to 149 °C.
With `CCOC(=O)C1(C(=O)Nc2ccc(C(F)(F)F)cc2)CC1` the melting point was 80.5 to 82 °C.
Work on `CCOc1cccc(N2C(=O)C(=CN(C)C)c3ccccc32)c1` yielded a melting point of 99 to 102 °C.
Molecule `CCCC(=O)Nc1cc(C(Cl)(Cl)Cl)ccn1` has a melting point of 88 to 90 °C.
`CC(C)(C)OC(=O)Cc1nn(Cc2nc3cc(C(F)(F)F)ccc3s2)c(=O)c2cccnc12` gave a melting point of 121 to 122 °C.
Work on `COc1cc2c(Nc3cccc(Cl)c3F)ncnc2cc1OC1CCN(C(=O)C(C)(C)CO)CC1` yielded a melting point of 111 to 115 °C.
For `CCN(CC)S(=O)(=O)c1cc(O)c(N=Nc2c(C)nn(CC)c2O)c2ccccc12`, the melting point was 174 to 175 °C.
`COCc1cnc2c(NC(=O)c3c(Cl)cccc3Cl)ccc(C)c2c1Cl` gave a melting point of 180 °C.
In the case of `COC(=O)COc1cccc2c(CCS(=O)(=O)CCc3ccccc3)c(C)oc12`, the melting point is reported as 91 to 92 °C.
`NCc1cccc(Nc2ncnc3[nH]cc(C(=O)c4ccccc4)c23)c1` gave a melting point of 210 to 212 °C.
With `O=C(O)c1cc(SCC(=O)c2ccccc2)cc(C(F)(F)F)c1` the melting point was 135 to 150 °C.
For `COCOc1cc(OC)ccc1Br`, the melting point was 40 to 42 °C.
With `O=C(Cc1ccccc1)NN(C1=NCCS1)c1ccccc1` the melting point was 121 to 124 °C.
Molecule `COC(=O)c1ccc(Cc2c(OCc3ccc(-c4ccccc4-c4nnn[nH]4)cc3)cc(C)nc2C)cc1` has a melting point of 144 to 145 °C.
With `CN(C)C1CCCN(C(=O)c2ccc(-c3[nH]nc4c3C(=O)c3c(NC(=O)NN5CCOCC5)cccc3-4)s2)C1` (stereo not given) the melting point was greater than 300 °C.
With `COc1ccc2c(c1)CCC1CCNC(=O)C(CNC(C)C)=C21` (stereo not given) the melting point was 212 to 214 °C.
Work on `COc1ccc(CNc2c(C)c(C)c3oc(C)c(-c4ccc(F)cc4)c3c2C)cc1` yielded a melting point of 100 to 102 °C.
`COc1ccc(-c2nc(O)c(C)s2)cc1` showed a melting point of 149 to 150 °C.
For `S=C(N1CCOCC1)C1(c2ccccn2)CCCS1` (stereo not given), the melting point was 139 °C.
`COC(=O)[C@H](Cc1ccc([N+](=O)[O-])cc1)NC(C)=O` showed a melting point of 126 °C.
In the case of `O=c1[nH]c2cc(Cl)ccc2c(=O)cc1NCc1ccccc1`, the melting point is reported as 309 to 314 °C.
Molecule `CCCCc1nc2c(C)cnc(C(=O)OC)c2n1Cc1ccc(-c2ccccc2-c2nnn[nH]2)cc1` has a melting point of 149 to 151 °C.
For `COC(=O)CCCCCNC(=O)C(COS(C)(=O)=O)NS(=O)(=O)c1ccc(Cl)cc1` (racemic), the melting point was 81 to 84 °C.
Work on `OC1(C(F)(F)F)ON=C(c2ccc(Cl)cc2)C1Cl` (stereo not given) yielded a melting point of 126 to 127 °C.
In the case of `O=C1OC(O)(c2ccccc2)C2(Cl)CCCCC12` (stereo not given), the melting point is reported as 89 to 92 °C.
`CC(=O)N(Cc1ccccc1)CC(CCN1CCC(O)(c2ccccc2)CC1)c1ccc(Cl)c(Cl)c1` (stereo not given) gave a melting point of 57 to 62 °C.
`Cc1c(C2CCC(c3cccs3)(N(C)C)CC2)[nH]c2ccccc12` (stereo not given) gave a melting point of 191 to 197 °C.
`CCOC(=O)C1(c2ccccc2)CCN(C/C=C/C(C#N)(c2ccccc2)c2ccccc2)CC1` showed a melting point of 100 to 102 °C.
`Clc1ccc(-n2cc(-c3n[nH]c4ccccc34)nn2)cn1` showed a melting point of 272 to 280 °C.
In the case of `O=C1c2c(O)cccc2C(SCCS)c2cccc(O)c21`, the melting point is reported as 133 to 134 °C.
With `COc1ccccc1N1CCN(CCCCc2c[nH]c3ccccc23)CC1` the melting point was 113 to 115 °C.
`COC(=O)COc1cc(Cl)c(SCc2cc(-c3ccc(C(F)(F)F)cc3)on2)cc1C` gave a melting point of 120 to 121 °C.
With `CCOC(=O)c1ccc2c(c1)C(=O)C(=O)N2` the melting point was 205 to 206 °C.
`Cc1nnc2n1-c1ccccc1C(c1ccccc1)=NC2NC(=O)Nc1ccc(Cl)cc1` (stereo not given) showed a melting point of 292 to 294 °C.
In the case of `CCOC(=O)c1c(CN2CCOCC2)nc2cc(OCC)c(OCC)cc2c1-c1ccc(OC)c(OC)c1`, the melting point is reported as 147 to 148 °C.
With `O=C(CCc1ccc(O)cc1)OCc1ccc([N+](=O)[O-])cc1` the melting point was 80 to 82 °C.
Work on `O=C1NC(=O)C(=Cc2ccc(OCCc3ccccc3)cc2)S1` yielded a melting point of 185 to 187 °C.
With `N#Cc1cccc(N2C(=O)CC(=O)Nc3c2ccc2ccccc32)c1` the melting point was 220 to 222 °C.
Molecule `Cc1nnc2ccc(-c3cccc(C(F)(F)F)c3)nn12` has a melting point of 193 to 194 °C.
Work on `O=C(O)CCCCCCCC(=O)c1c(-c2ccc(O)cc2)sc2cc(O)ccc12` yielded a melting point of 154 to 158 °C.
Molecule `Cc1cc2c(cc1C(C)SCC(N)=O)OCO2` (stereo not given) has a melting point of 121 to 122 °C.
`Cc1cccc(Nn2c(-c3ccccc3)c(C(C)C)[nH]c2=S)c1` gave a melting point of 220 to 222 °C.
Work on `OCCSC1=NN(SCCO)CS1` yielded a melting point of 80 °C.
`COc1cc(Nc2nccc(-c3ccc(N4CC(O)C4)nc3)n2)cc(OC)c1OC` showed a melting point of 186 to 187 °C.
`COP(=O)(Cc1c2ccccc2cc2ccccc12)OC` gave a melting point of 152 to 153 °C.
With `O=[N+]([O-])c1cn(-c2cccnc2)nc1C(F)(F)F` the melting point was 121 to 123 °C.
`Cc1ncn(-c2cc(F)ccc2CNC(=O)c2nc3n(c(=O)c2OCc2ccccc2)CCOC3(C)C)n1` showed a melting point of 203 °C.
In the case of `CCCN(CCC)c1nc2c(Cl)nccc2c(=O)[nH]1`, the melting point is reported as 180 °C.
Molecule `CN1CCC(C2(O)c3ccc(F)cc3Sc3ccc(F)cc32)CC1` (stereo not given) has a melting point of 207 to 209 °C.
Work on `CC(C)(C)C(=O)Oc1ccc(NCC2CCc3ccccc3C2)cc1` (stereo not given) yielded a melting point of 75 to 77 °C.
Work on `O=C(NCCO)c1cccc(-c2cccc3cn(Cc4cccc(C(F)(F)F)c4)nc23)c1` yielded a melting point of 136 to 137 °C.
With `Cc1cc(-n2ccnc2)c2cccc(OCc3c(Cl)ccc(S(=O)(=O)N4CCC[C@H]4C(=O)NCCCN(C)C)c3Cl)c2n1` the melting point was 80 °C.
Work on `Cc1cccc(-c2[nH]c(C(C)C)nc2-c2cccc(-c3ccc(F)cc3)c2)n1` yielded a melting point of 83 to 85 °C.
With `Cc1cc(OC2SCC(O)C(O)C2O)cc(C)c1-c1ccncc1` (stereo not given) the melting point was 106 to 107 °C.
In the case of `CCCCC(=O)Nc1cccc2c1C(=O)N(C1(C)CCC(=O)NC1=O)C2=O` (stereo not given), the melting point is reported as 190 to 192 °C.
For `Cc1sc(C)c2c(=O)n3cc(C#N)ccc3nc12`, the melting point was 242 to 244 °C.
Molecule `O=C(Oc1ccccc1)N1CCC2(CC1)SC(c1ccccc1F)c1ccccc12` (stereo not given) has a melting point of 122 to 123 °C.
`Nc1ccccc1SCC1=NOCN1` gave a melting point of 108 °C.
`CN(C)Cc1nnc2n1-c1ccccc1C(c1ccccc1)=NC2` showed a melting point of 181 to 182 °C.
`COC(=O)CCNC(=O)C1CCCN1C(=O)OCc1ccccc1` (stereo not given) showed a melting point of 55 °C.
For `CC(C(=O)O)c1ccc2c(c1)oc1ccc(Cl)cc12` (single isomer, unassigned; (+)), the melting point was 155 to 157 °C.
In the case of `CCCCc1nc(Cl)c(C=O)n1Cc1ccc2oc(-c3ccccc3C#N)c(OC)c2c1`, the melting point is reported as 118 to 120 °C.
With `CC1C(=O)N(CC(N)=O)c2cc(Br)ccc21` (stereo not given) the melting point was 102 to 104 °C.
In the case of `CCc1cccc(CC(=O)O)c1OCCCc1cn(-c2ccc(Cl)cn2)nc1C(CC)CC`, the melting point is reported as 114 to 115 °C.
For `Cc1ccc(C(=O)Nc2ccc(C(=O)N3Cc4ccccc4Cc4ccccc43)cc2)c(C)c1`, the melting point was 197 to 199 °C.
For `Cc1ncnc2c1ncn2[C@H](C)[C@](O)(Cn1cncn1)c1ccc(F)cc1F`, the melting point was 200 to 201 °C.
`Cc1nn(-c2ccc(C(F)(F)F)cn2)cc1COc1cc(CO)n(C)n1` showed a melting point of 128 to 129 °C.
In the case of `O=P(O)(CCCNCc1cc(Cl)cc(Cl)c1)CC1CCCCC1`, the melting point is reported as 231 to 233 °C.
Work on `O=C(O)CCC(=O)NCc1ccc2c(c1)-c1[nH]nc(-c3ccsc3)c1C2` yielded a melting point of 235 to 236 °C.
For `OCc1nnc(-c2cc3c(OC[C@@H](O)CN4CCC(c5ccc(Cl)c(Cl)c5)CC4)cccc3o2)o1`, the melting point was 158 to 160 °C.
For `CC(=O)c1ccc(NS(=O)(=O)c2sc3ccc(F)cc3c2C)c(S(C)(=O)=O)c1`, the melting point was 174 to 175 °C.
With `CC(=O)Nc1nc(CCc2ccc(NC(NC(=O)OC(C)(C)C)NC(=O)OC(C)(C)C)cc2)cs1` the melting point was 276 °C.
With `O=C(NCC1CCNCC1)c1ccccc1` the melting point was 119 °C.
With `Cn1cc(-c2nc(C(F)(F)F)c[nH]2)cn1` the melting point was 206 to 207 °C.
With `Cc1nc(NC(=O)c2ccn(-c3ccccc3)c(=O)c2)sc1C(=O)NCc1ccccc1` the melting point was 260 to 262 °C.
`Clc1ccc(N2CCN(Cc3cn4cc(Br)ccc4n3)CC2)c(Cl)c1` gave a melting point of 137 to 138 °C.
For `Oc1cc(Br)c(Cl)c(Br)c1`, the melting point was 120 to 122 °C.
`O=C(O)c1ncn2c1CN(C(=O)N1CCCC1)c1ccccc1-2` gave a melting point of 197 to 200 °C.
`CSCC(C)C(=O)N(C)c1sc(-c2cccnc2)nc1Cl` (stereo not given) gave a melting point of 70 to 73 °C.
`Cn1c(C(F)(F)F)cc(=O)n(-c2ccc3snc(C4OCC5(CO4)CO5)c3c2)c1=O` (stereo not given) gave a melting point of 203 to 206 °C.
Work on `O=C1NC=C(C(=O)O)CN1` yielded a melting point of 139 to 141 °C.
In the case of `CN(C)c1nc2c(ccc3ccccc32)s1`, the melting point is reported as 136 to 138 °C.
`N#Cc1ccc2c3ccc(C#N)c4c(C#N)ccc(c5ccc(Br)c1c52)c43` showed a melting point of 235 to 237 °C.
With `O=c1c(Cc2cccnc2)cn2c3c(cc(Cl)cc13)Oc1cc(Cl)ccc1-2` the melting point was 170 to 171 °C.
With `O=C(c1ccccc1)N1CC2COCC2C1` (stereo not given) the melting point was 47 to 48 °C.
For `CCCOC(Cc1ccc(OCCc2nc(-c3ccccc3)oc2C)c2ccsc12)C(=O)O` (stereo not given), the melting point was 106 to 109 °C.
With `OC(c1ccc(Cl)cc1)c1cccnc1-n1ccnc1` (stereo not given) the melting point was 133 to 134 °C.
With `CCOC(=NC(=O)Nc1ccc(OC(F)(F)F)cc1)c1ccccc1F` the melting point was 93 to 95 °C.
